Results from patent publication US7973147B2, “K04-0144 substance and a process for production thereof” (The Kitasato Institute, priority 2006, dated 2011).
Converted amounts (≈) assume the structure as drawn. “Also recorded” adds a separate entry of the source. Like-named read-outs stand apart in the source and are kept apart here.

Experiments:
Solubility in solvent = assay type: physicochemical
[1] = system: methicillin-resistant Staphylococcus aureus (MRSA) K24 strain; assay: Enhancing action on activity of imipenem by paper disc method; assay type: cell-based
Procedure: Clinical isolate of methicillin-resistant Staphylococcus aureus (MRSA) K24 strain was used as a test microorganism. After the strain of MRSA K24 was cultured in Mueller-Hinton broth (2.1% w/v) (DIFCO) at 37° C. for 20 hours, the strain was suspended to the concentration corresponding to 0.5 Mc FARAND (about 10^8 CFU/ml) in the same medium. The suspension was smeared on MHA medium (Mueller-Hinton broth 2.1% (w/v), agar 1.5%) and a medium of the same composition containing imipenem (Tienem for Intramuscular Injection, 0.5 g, Banyu Pharmaceutical Co., Ltd., Japan) with a concentration without affecting the growth of test microorganisms, i.e. final concentration of 10 μg/ml. Smearing was performed according to the method of National Committee for Laboratory Standard, the U.S. (NCCLS), by using sterilized cotton-tipped swab (Kawamoto Sangyo Co., Ltd., Japan).

[2] = system: MRSA (Clinical isolate, the Kitasato Hospital, Japan); assay: Enhancing action of K04-0144D substance on antibiotic activities, broth microdilution method; assay type: cell-based, methicillin-resistant Staphylococcus aureus; conditions: for MIC: Staphylococcus aureus, MRSA
[3] = system: E. facecalis NTCT12201(VanA); assay: MIC, agar plate dilution method; assay type: cell-based; conditions: E. facecalis NTCT12201(VanA); 37° C., 20 hours; read-out: MIC
Procedure: (§1) Assay of minimum inhibitory concentration (MIC) was performed according to the agar plate dilution method (Method of Japan Society of Chemotherapy, CHEMOTHERAPY 29, 76-79, 1981).
(§2) Test organisms used were 27 types of microorganisms including clinical isolates of methicillin-resistant Staphylococcus aureus. Each test organism was cultured in Mueller-Hinton broth (2.1% w/v) (DIFCO) at 37° C. for 20 hours, and the cultured cells were suspended to about 10^6 cell counts/ml in the same medium, then was used as the microbial suspension for inoculation. The prepared microbial suspension was smeared by using the microplanter on MHA medium (Mueller-Hinton broth 2.1% (w/v) and agar 1.5%) containing K04-0144A substance, K04-0144B substance or K04-0144C substance, each of which was subjected to two-fold stepwise dilution from 128 μg/ml. After culturing at 37° C. for 20 hours, MIC was determined by macroscopically confirming the growth of microorganisms. Vancomycin, arbekacin and linezolid were used as a comparative control.

M. morganii IID Kono = assay: MIC, agar plate dilution method; assay type: cell-based; conditions: Morganella morganii; M. morganii IID Kono; 37° C., 20 hours; read-out: MIC
Procedure: as §1, §2

S. aureus 8325(pEP2104) = assay: MIC, agar plate dilution method; assay type: cell-based; conditions: Staphylococcus aureus, 20 h
Procedure: as §1, §2

E. coli NIHJ JC-2 = assay: MIC, agar plate dilution method; assay type: cell-based; conditions: Escherichia coli, NIHJJC2; E. coli NIHJ JC-2; 37° C., 20 hours; read-out: MIC
Procedure: as §1, §2

E. cloacae IFO13535 = assay: MIC, agar plate dilution method; assay type: cell-based; conditions: Enterobacter cloacae; E. cloacae IFO13535; 37° C., 20 hours; read-out: MIC
Procedure: as §1, §2

E. faecalis ATCC21212 = assay: MIC, agar plate dilution method; assay type: cell-based; conditions: Enterococcus faecalis; E. faecalis ATCC21212; 37° C., 20 hours; read-out: MIC
Procedure: as §1, §2

S. aureus FDA209P = assay: MIC, agar plate dilution method; assay type: cell-based; conditions: Staphylococcus aureus; S. aureus FDA209P; 37° C., 20 hours; read-out: MIC
Procedure: as §1, §2

A. calcoaceticus IFO2552 = assay: MIC, agar plate dilution method; assay type: cell-based; conditions: Acinetobacter calcoaceticus; A. calcoaceticus IFO2552; 37° C., 20 hours; read-out: MIC
Procedure: as §1, §2

K. pneumoniae NCTN9632 = assay: MIC, agar plate dilution method; assay type: cell-based; conditions: Klebsiella pneumoniae; K. pneumoniae NCTN9632; 37° C., 20 hours; read-out: MIC
Procedure: as §1, §2

C. freundii ATCC8090 = assay: MIC, agar plate dilution method; assay type: cell-based; conditions: Citrobacter freundii; C. freundii ATCC8090; 37° C., 20 hours; read-out: MIC
Procedure: as §1, §2

E. aerogenes NCTC10006 = assay: MIC, agar plate dilution method; assay type: cell-based; conditions: Klebsiella aerogenes; E. aerogenes NCTC10006; 37° C., 20 hours; read-out: MIC
Procedure: as §1, §2

P. aeruginosa 46001 = assay: MIC, agar plate dilution method; assay type: cell-based; conditions: Pseudomonas aeruginosa; P. aeruginosa 46001; 37° C., 20 hours; read-out: MIC
Procedure: as §1, §2

S. marcescens IFO12648 = assay: MIC, agar plate dilution method; assay type: cell-based; conditions: Serratia marcescens; S. marcescens IFO12648; 37° C., 20 hours; read-out: MIC
Procedure: as §1, §2

S. aureus ISP447 = assay: MIC, agar plate dilution method; assay type: cell-based; conditions: Staphylococcus aureus; S. aureus ISP447; 37° C., 20 hours; read-out: MIC
Procedure: as §1, §2

P. aeruginosa E-2 = assay: MIC, agar plate dilution method; assay type: cell-based; conditions: Pseudomonas aeruginosa, E2; P. aeruginosa E-2; 37° C., 20 hours; read-out: MIC
Procedure: as §1, §2

[4] = system: E. faecium NTCT12203(VanA); assay: MIC, agar plate dilution method; assay type: cell-based; conditions: Enterococcus faecium; E. faecium NTCT12203(VanA); 37° C., 20 hours; read-out: MIC
Procedure: as §1, §2

S. epidermidis IFO12648 = assay: MIC, agar plate dilution method; assay type: cell-based; conditions: Staphylococcus epidermidis; S. epidermidis IFO12648; 37° C., 20 hours; read-out: MIC
Procedure: as §1, §2

P. mirabilis IFO3849 = assay: MIC, agar plate dilution method; assay type: cell-based; conditions: Proteus mirabilis; P. mirabilis IFO3849; 37° C., 20 hours; read-out: MIC
Procedure: as §1, §2

S. aureus ISP217 = assay: MIC, agar plate dilution method; assay type: cell-based; conditions: Staphylococcus aureus; S. aureus ISP217; 37° C., 20 hours; read-out: MIC
Procedure: as §1, §2

M. luteus ATCC9341 = assay: MIC, agar plate dilution method; assay type: cell-based; conditions: Micrococcus luteus; M. luteus ATCC9341; 37° C., 20 hours; read-out: MIC
Procedure: as §1, §2

P. vulgaris OX-19 = assay: MIC, agar plate dilution method; assay type: cell-based; conditions: Proteus vulgaris, OX19; P. vulgaris OX-19; 37° C., 20 hours; read-out: MIC
Procedure: as §1, §2

S. aureus 8325(pMS97) = assay: MIC, agar plate dilution method; assay type: cell-based; conditions: Staphylococcus aureus, 20 h
Procedure: as §1, §2

S. aureus Smith = assay: MIC, agar plate dilution method; assay type: cell-based; conditions: Staphylococcus aureus; S. aureus Smith; 37° C., 20 hours; read-out: MIC
Procedure: as §1, §2

MRSA 70 = assay: MIC, agar plate dilution method; assay type: cell-based, methicillin-resistant Staphylococcus aureus; conditions: Staphylococcus aureus; MRSA 70; 37° C., 20 hours; read-out: MIC
Procedure: as §1, §2

MRSA N315 IR94 HR-1 = assay: MIC, agar plate dilution method; assay type: cell-based, methicillin-resistant Staphylococcus aureus; conditions: Staphylococcus aureus, 20 h
Procedure: as §1, §2

MRSA 92-1191 = assay: MIC, agar plate dilution method; assay type: cell-based, methicillin-resistant Staphylococcus aureus; conditions: Staphylococcus aureus; MRSA 92-1191; 37° C., 20 hours; read-out: MIC
Procedure: as §1, §2

MRSA N315 IR94 = assay: MIC, agar plate dilution method; assay type: cell-based, methicillin-resistant Staphylococcus aureus; conditions: Staphylococcus aureus, 20 h
Procedure: as §1, §2

Row | Compound | MIC [3] [µg/mL] | MIC (M. morganii IID Kono) [µg/mL] | MIC (E. coli NIHJ JC-2) [µg/mL] | MIC (E. cloacae IFO13535) [µg/mL] | MIC (E. faecalis ATCC21212) [µg/mL] | MIC (S. aureus FDA209P) [µg/mL] | MIC (A. calcoaceticus IFO2552) [µg/mL] | MIC (K. pneumoniae NCTN9632) [µg/mL] | MIC (C. freundii ATCC8090) [µg/mL] | MIC (E. aerogenes NCTC10006) [µg/mL] | MIC (P. aeruginosa 46001) [µg/mL] | MIC (S. marcescens IFO12648) [µg/mL] | MIC (S. aureus ISP447) [µg/mL] | MIC (P. aeruginosa E-2) [µg/mL] | MIC [4] [µg/mL] | MIC (S. epidermidis IFO12648) [µg/mL] | MIC (P. mirabilis IFO3849) [µg/mL] | MIC (S. aureus ISP217) [µg/mL] | MIC (M. luteus ATCC9341) [µg/mL] | MIC (P. vulgaris OX-19) [µg/mL] | other results
1 | C=C/C(C)=C/CC1C2(C)CCCC(C)(C)C2CC(O)C1(O)CSCC(NC(C)=O)C(=O)O (centres unmarked) [K04-0144D substance] |  |  |  |  |  |  |  |  |  |  |  |  |  |  |  |  |  |  |  |  | Solubility in solvent (Solubility in solvent): Soluble in methanol and water acetonitrile; also recorded: Insoluble in chloroform and hexane ethyl acetate; Diameter of inhibition ring ([1]; 1 μg/6 mm disc, Imipenem (10 μg/ml) (+)): 15 mm; Diameter of inhibition ring ([1]; 1 μg/6 mm disc, Imipenem (10 μg/ml) (−)): did not exhibit an inhibitory ring; Diameter of inhibition ring ([1]; 10 μg/6 mm disc, Imipenem (10 μg/ml) (+)): 26 mm; Diameter of inhibition ring ([1]; 10 μg/6 mm disc, Imipenem (10 μg/ml) (−)): 14 mm
2 | [H]/N=C(/N)N[C@H]1[C@H](O)[C@@H](O)[C@H](O[C@@H]2O[C@@H](C)[C@](O)(C=O)[C@H]2O[C@@H]2O[C@@H](CO)[C@H](O)[C@@H](O)[C@@H]2NC)[C@@H](N/C(N)=N\[H])[C@@H]1O [Streptomycin, streptomycin] |  |  |  |  |  |  |  |  |  |  |  |  |  |  |  |  |  |  |  |  | enhancing action of K04-0144D substance on the antibiotic's activity ([2]; K04-0144D substance 16 μg/ml): no enhancing action; Ratio (−/+K04-0144D) ([2]; MIC alone / MIC with K04-0144D substance 16 μg/ml): 2; MIC ([2]; antibiotic alone, without K04-0144D substance, read-out: Minimum Inhibitory Concentration (−)): 2 µg/mL; MIC ([2]; combined use with K04-0144D substance 16 μg/ml, read-out: Minimum Inhibitory Concentration (+)): 1 µg/mL
3 | NCC[C@H](O)C(=O)N[C@@H]1C[C@H](N)[C@@H](O[C@H]2O[C@H](CN)CC[C@H]2N)[C@H](O)[C@H]1O[C@H]1O[C@H](CO)[C@@H](O)[C@H](N)[C@H]1O [arbekacin, reference compound] | > 32 | 0.5 (≈ 0.905 µM) | > 32 | 0.5 (≈ 0.905 µM) | > 32 | ≤ 0.25 | ≤ 0.25 | ≤ 0.25 | 0.5 (≈ 0.905 µM) | ≤ 0.25 | 1 (≈ 1.81 µM) | 1 (≈ 1.81 µM) | ≤ 0.25 | 4 (≈ 7.24 µM) | 8 (≈ 14.5 µM) | ≤ 0.25 | 2 (≈ 3.62 µM) | ≤ 0.25 | ≤ 0.25 | 2 (≈ 3.62 µM) | MIC (S. aureus 8325(pEP2104)): ≤ 0.25 µg/mL; MIC (S. aureus 8325(pMS97)): ≤ 0.25 µg/mL; MIC (S. aureus Smith): ≤ 0.25 µg/mL; MIC (MRSA 70): 0.5 µg/mL (≈ 0.905 µM); MIC (MRSA N315 IR94 HR-1): 1 µg/mL (≈ 1.81 µM); MIC (MRSA 92-1191): 0.5 µg/mL (≈ 0.905 µM)
4 | CC(=O)NC[C@H]1CN(c2ccc(N3CCOCC3)c(F)c2)C(=O)O1 [linezolid, reference compound] | 2 (≈ 5.93 µM) | > 32 | > 32 | > 32 | 2 (≈ 5.93 µM) | 1 (≈ 2.96 µM) | > 32 | > 32 | > 32 | > 32 | > 32 | > 32 | 2 (≈ 5.93 µM) | > 32 | 2 (≈ 5.93 µM) | 2 (≈ 5.93 µM) | > 32 | 2 (≈ 5.93 µM) | 2 (≈ 5.93 µM) | 8 (≈ 23.7 µM) | MIC (S. aureus Smith): 2 µg/mL (≈ 5.93 µM); MIC (MRSA 70): 0.5 µg/mL (≈ 1.48 µM); MIC (MRSA N315 IR94): 1 µg/mL (≈ 2.96 µM); MIC (MRSA 92-1191): 2 µg/mL (≈ 5.93 µM)
